Assay results taken from paper PMC9820279 (International Journal of Molecular Sciences, 2022).
Read-outs that look alike come from different tables or passages of the source.

Test system: HBMEC monolayer
[1] = matrix ASFE extract 24 µg/mL, 2 h incubation, n.d = not detected in lower compartment
[2] = matrix ASFE extract 24 µg/mL, 4 h incubation, n.d = not detected in lower compartment

Procedure: The cell line HBMEC was used as a simplified in vitro model of the BBB endothelium. […] Endothelial cell cultures were maintained at 37 °C in a humid atmosphere enriched with 5% CO2. In our studies, HBMEC were used between passage 25 and 29. For experiments, HBMECs were seeded using a volume of 200 µL at a density of 8 × 10^4 cells/mL in rat tail collagen-I (100 µg/mL) coated 96-well plates (for viability assay) or 500 µL at a density of 1.6 × 10^5 cells/mL in rat tail collagen-I (100 µg/mL) coated semi-permeable membranes in transwell inserts (0.4 µm pore, Corning Costar Corp., USA; for BBB integrity and transport assays) for 12-well plates. The incubation timepoints were assay dependent.
For the transendothelial transport assays, HBMEC were seeded on transwell inserts as described above and are schematically depicted in Figure 1a. After seeding, the media were changed every two days. Four days post-seeding, the HBMEC monolayer was formed, and the transport studies were performed. […] Vupper and Vlower is the upper and lower compartment volume (0.5 and 1.5 mL, respectively). The culture inserts were used for the subsequent integrity permeability studies.

Tocospiro B
Te % (SEM) 2 h: 1.9 (0.1) %
Te % (SEM) 4 h: 26.2 (1.0) %

Cc1cc(O)c(C)c2c1O[C@](C)(CCC[C@H](C)CCC[C@H](C)CCCC(C)C)CC2 [β-Tocopherol]
Te % (SEM) 4 h: 15.2 (0.8) %

COc1ccc([C@@H]2CC(=O)c3c(O)cc(O)cc3O2)cc1O [Hesperetin]
Te % (SEM) 2 h (human, 2 h, 24 µg/mL): 65.5 (4.8) %
Te % (SEM) 4 h (human, 4 h, 24 µg/mL): 67.2 (3.6) %

C[C@@H]1CC[C@@H]2[C@@H]1[C@H]1[C@@H](CC[C@@]2(C)O)C1(C)C [(-)-Globulol]
Te % (SEM) 2 h: 44.1 (3.6) %

O=C(O)[C@]1(O)C[C@@H](O)[C@@H](O)[C@H](O)C1 [Quinic acid]
Te % (SEM) 2 h (human, 2 h, 30 µg/mL): 20.1 (1.6) %
Te % (SEM) 4 h (human, 4 h, 30 µg/mL): 52.5 (1.4) %

CC1(C)C[C@@H]2C3=CC[C@@H]4[C@@]5(C)CC[C@H](O)[C@@](C)(C=O)C5CC[C@@]4(C)[C@]3(C)CC[C@@]2(C(=O)O)C[C@@H]1O (stereo partly drawn) [Lucyin A]
Te % (SEM) 2 h [1]: 7.6 (0.5) %
Te % (SEM) 4 h [2]: 25.3 (0.7) %

C[C@H]1[C@H](C)CC[C@]2(CO)CC[C@]3(C)C(=CC[C@@H]4[C@@]5(C)CC[C@H](O)C(C)(C)[C@@H]5CC[C@]43C)[C@H]12 (single isomer, unassigned) [Uvaol Isomer I, Uvaol]
Te % (SEM) 2 h (human): 3.3 (0.1) %
Te % (SEM) 4 h (human): 38.8 (3.2) %

C=C1CC[C@H]2O[C@]2(C)CC[C@@H]2[C@@H]1CC2(C)C [Caryophyllene oxide]
Te % (SEM) 2 h: 67.7 (0.9) %

CC1=CCCC2(C)CCC3C(C)(C)CC132 (stereo not drawn) [(−)-α-Panasinsen]
Te % (SEM) 2 h: 19.8 (0.2) %

O=C(/C=C/c1ccc(O)c(O)c1)OC1[C@H](O)CC(O)(C(=O)O)C[C@H]1O (stereo partly drawn) [Caffeoylquinic acid]
Te % (SEM) 2 h: 15.7 (0.4) %
Te % (SEM) 4 h: 74.8 (2.9) %

C[C@@H]1O[C@@H](OC[C@H]2O[C@@H](Oc3c(-c4ccc(O)c(O)c4)oc4cc(O)cc(O)c4c3=O)[C@H](O)[C@@H](O)[C@@H]2O)[C@H](O)[C@H](O)[C@H]1O [Rutin]
Detection / transport to brain side of HBMEC-BBB model: poor transport trough the BBB

Cc1c(C)c2c(c(C)c1O)CC[C@@](C)(CCC[C@H](C)CCC[C@H](C)CCCC(C)C)O2 [α-Tocopherol]
Te % (SEM) 2 h (human, 2 h, 15 µg/mL): 18.3 (0.8) %
Te % (SEM) 2 h (human, 2 h, 40 µg/mL): 19.8 (0.2) %
Te % (SEM) 4 h (human, 4 h, 15 µg/mL): 29.1 (1.5) %
Te % (SEM) 4 h (human, 4 h, 40 µg/mL): 39.7 (3.0) %

C=C1CCC[C@]2(C)CC[C@H]3C(C)(C)C[C@]132 [β-Panasinsene]
Te % (SEM) 2 h: 33.4 (1.5) %
Te % (SEM) 4 h: 34.8 (1.0) %

CC(CC(=O)CC(C)C1CC(O)C2(C)C3=C(C(=O)CC12C)C1(C)CCC(O)C(C)(CO)C1CC3)C(=O)O (stereo not drawn) [Ganolucidic acid C]
Te % (SEM) 2 h [1]: 11.7 (0.7) %
Te % (SEM) 4 h [2]: 15.6 (0.3) %

CC(=O)OC(C)(C)[C@@H]1CC[C@@]2(C)CO[C@]3(C)C=CO[C@]23C1 [Phytuberin]
Te % (SEM) 2 h: 33.4 (1.5) %
Te % (SEM) 4 h: 79.6 (2.2) %

CC1(C)C2CCC1(C)C(O)C2 (stereo not drawn) [Borneol]
Te % (SEM) 2 h (human, 2 h, 40 µg/mL): 8.5 (0.3) %
Te % (SEM) 4 h (human, 4 h, 40 µg/mL): 35.2 (0.1) %

Tocospiro A
Te % (SEM) 2 h: 2.7 (0.2) %
Te % (SEM) 4 h: 25.6 (1.5) %

O=c1c(O)c(-c2ccc(O)cc2)oc2cc(O)cc(O)c12 [Kaempferol]
Te % (SEM) 2 h (human, 2 h, 24 µg/mL): 31.5 (1.1) %
Te % (SEM) 4 h (human, 4 h, 24 µg/mL): 36.5 (2.2) %

Caffeoylshikimic acid
Te % (SEM) 2 h: 14.3 (0.8) %
Te % (SEM) 4 h: 29.0 (0.1) %

COc1cc(C=O)cc(OC)c1O [Syringaldehyde]
Te % (SEM) 2 h (human): 22.7 (1.5)/33.4 (2.2) %
Te % (SEM) 4 h (human): 45.7 (3.2)/42.0 (1.4) %
Te % (SEM) 2 h [1]: 22.7 (1.5)/33.4 (2.2) %
Te % (SEM) 4 h [2]: 45.7 (3.2)/42.0 (1.4) %

O=C(O)/C=C/c1ccc(O)c(O)c1 [Caffeic acid]
Te % (SEM) 2 h (human, 2 h, 24 µg/mL): 55.4 (3.7) %
Te % (SEM) 2 h (human, 2 h, 30 µg/mL): 34.8 (1.2) %
Te % (SEM) 4 h (human, 4 h, 24 µg/mL): 68.3(0.3) %
Te % (SEM) 4 h (human, 4 h, 30 µg/mL): 50.1 (3.4) %

O=Cc1ccc(O)c(O)c1 [Protocatechuic aldehyde]
Te % (SEM) 2 h [1]: 20.3 (1.5) %
Te % (SEM) 4 h [2]: 78.2 (5.7) %

CCOC(=O)/C=C/c1ccc(O)c(O)c1 [Ethyl caffeate]
Te % (SEM) 2 h: 33.4 (2.4) %
Te % (SEM) 4 h: 35.7 (0.3) %

Cc1ccc(C(C)C)c(O)c1 [Thymol]
Te % (SEM) 2 h (human, 2 h, 40 µg/mL): 34.1 (0.1) %
Te % (SEM) 4 h (human, 4 h, 40 µg/mL): 47.0 (1.7) %

O=C(/C=C/c1ccc(O)c(O)c1)c1ccc(O)cc1O [Butein]
Te % (SEM) 2 h [1]: 27.5 (2.0) %
Te % (SEM) 4 h [2]: 36.3 (2.6) %

C=CC1(C)CCC(=C(C)C)CC1C(=C)C (stereo not drawn) [γ-Elemene]
Te % (SEM) 2 h: 30.1 (0.1) %
Te % (SEM) 4 h: 41.8 (1.7) %

C=C(C)[C@@H]1CCC2=CCC[C@@H](C)[C@]2(C)C1 [Valencene]
Te % (SEM) 2 h: 51.9 (4.2) %

C=C(C)[C@H]1CC=C(C)CC1 [Limonene]
Te % (SEM) 2 h: 33.6 (2.3) %
Te % (SEM) 4 h: 59.3 (2.9) %

CC1(C)CCCC2(C)OC(=O)C=C12 (stereo not drawn) [Dihydroactinidiolide]
Te % (SEM) 2 h (human): 42.2 (3.5) %
Te % (SEM) 4 h (human): 51.8 (3.0) %

Cc1c(O)cc2c(c1C)O[C@](C)(CCC[C@H](C)CCC[C@H](C)CCCC(C)C)CC2 [γ-Tocopherol]
Te % (SEM) 2 h: 31.5 (0.8)/27.3 (2.1) %
Te % (SEM) 4 h: 42.0 (0.8)/30.0 (1.6) %
